Results reported in patent US20130244929A1 (priority 2010, published 2013).
Like-named read-outs stand apart in the source and are kept apart here.

Key:
[1] = system: MB 5393 (COL), a methicillin-resistant S. aureus strain; assay: Determination of minimum and synergistic inhibitory concentration; assay type: cell-based; settings: for SIC: presence of imipenem (4 μg/mL); for MIC: Staphylococcus aureus
Description: MB 5393 (COL), a methicillin-resistant S. aureus strain, was inoculated into Trypticase Soy Broth (TSB, BBL) and grown in a humidified incubator for 18 hours with rotary shaking at 220 rpm and kept on ice until used.
A quantity of imipenem (Merck Chemical Collection) was weighed out and dissolved into sterile 10 mM MOPS buffer at pH 7. This solution was diluted to 1600 μg/mL, 200 μg/mL, and 25 μg/mL and filter-sterilized through a 0.45 μm filter. From these solutions, seven 1:2 serial dilutions were prepared using sterile 10 mM MOPS buffer at pH 7. The final concentration ranges tested were 128 to 2 μg/mL, 16 to […], and 2 to 0.03 μg/mL. The solutions were kept refrigerated until used.
Test compounds (EXAMPLES 1-67) were prepared in sterile water or DMSO at a concentration of 3.2 mg/mL. From this solution, 11 serial 1:2 dilutions were prepared using sterile water. The final concentration range tested was 64 to 0.0313 μg/mL. The solutions were kept refrigerated until used.
Two-fold serial dilutions of test compounds were tested in the presence and absence of subinhibitory concentrations of imipenem (4 μg/mL) in 96-well U bottom microliter dishes in microbiological growth media. The plates were inoculated with bacterial cells to a final concentration of ˜5×10^5 CFU/mL. Test plates were incubated stationery at 37° C. for 22-24 hours.
After 22 hours of incubation, the Minimum inhibitory concentrations (MICs) were determined, defined as the lowest concentration of antibiotic that prevented all visible growth in the absence of imipenem. Synergistic inhibitory concentrations (SICs) were determined, defined as the lowest concentration of antibiotic that prevented all visible growth in the presence of imipenen.

SpsB = molecular target: T1, SpsB (Staphylococcus aureus, UniProt P0A070); assay: Inhibition of SpsB enzyme activity (fluorescence-based assay, bacterial membrane fraction); assay type: biochemical
T1 construct: using a bacterial membrane fraction as a source of SpsB; from tissue
T1 sequence (P0A070 1-191): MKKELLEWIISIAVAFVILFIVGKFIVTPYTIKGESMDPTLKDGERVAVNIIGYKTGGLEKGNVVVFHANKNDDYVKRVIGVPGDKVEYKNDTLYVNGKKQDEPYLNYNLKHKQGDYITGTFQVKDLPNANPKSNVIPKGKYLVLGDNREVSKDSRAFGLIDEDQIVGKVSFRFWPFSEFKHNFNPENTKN
Description: Signal peptidase enzyme activity was measured in a fluorescence-based assay using a bacterial membrane fraction as a source of SpsB (See Bruton et al., 2003, Eur J Med Chem 38:351-356). The SpsB substrate is a synthetic lipopeptide, decanoyl-K(DABCYL)-TPTAKA↓ASKKD-D(EDANS)—NH2 (prepared by JPT Peptide Technologies, Berlin, Germany). Assays were performed with 20 μM peptide substrate (Km≈5 μM) and reactions were initiated with enzyme addition (final protein concentration of 0.6 mg/mL). SpsB mediated cleavage of the peptide substrate was detected as an increase in fluorescence (excitation 340 nm/emission 460 nm).

[2] = MRSA COL, absence of imipenem, 22 hours, read-out: MIC

Row | SMILES | SIC ([1]; MRSA COL, 22 hours) | MIC [1, 2] [µg/mL] | IC50 (SpsB) [µM] | MIC ([1]; MRSA, 22 h) [µg/mL]
1 | CCCc1ccc(-c2ccc(C(=O)NCCC(=O)NC(CCCCN)C(=O)N(C)[C@@H]3C(=O)N[C@@H](C)C(=O)N[C@H](C(=O)O)Cc4ccc(O)c(c4)-c4cc3ccc4O)cc2)cc1.O=C(O)C(F)(F)F (stereo partly drawn) [EXAMPLE 2, 5-(R,S)-6-[[(7S,10S,3S)-13-carboxy-3,18-dihydroxy-10-methyl-8,11-dioxo-9,12-diazatricyclo[13.3.1.1^2,6]icosa-1(19),2(20),3,5,15,17-hexaen-7-yl](methyl)amino]-6-oxo-5-[(3-{[(4′-propylbiphenyl-4-yl)carbonyl]amino}propanoyl)amino]hexan-1-aminium trifluoroacetate] | H (H: SIC 0.062-1) | 1 to 8 | 0.01 to 0.05 | 
2 | CCCc1ccc(-c2ccc(C(=O)NCCC(=O)N[C@@H](CCCN)C(=O)N(C)[C@@H]3C(=O)N[C@@H](C)C(=O)N[C@H](C(=O)O)Cc4ccc(O)c(c4)-c4cc3ccc4O)cc2)cc1 [EXAMPLE 55] | H (H: SIC 0.062-1) |  | < 0.01 | < 1
3 | CCCCCCCCCc1ccc(-c2ccc(C(=O)NCCC(=O)N3CC[C@H]3C(=O)N(C)[C@@H]3C(=O)N[C@@H](C)C(=O)N[C@H](C(=O)O)Cc4ccc(O)c(c4)-c4cc3ccc4O)cc2)cc1 [EXAMPLE 19, (8S,11S,14S)-3,18-dihydroxy-11-methyl-14-(methyl{[(2)-1-(3-{[(4′-nonylbiphenyl-4-yl)carbonyl]amino}propanoyl)azetidin-2-yl]carbonyl}amino)-10,13-dioxo-9,12-diazatricyclo[13.3.1.1^2,6]icosa-1(19),2(20),3,5,15,17-hexaene-8-carboxylic acid] | G (G: SIC <0.0625) | 1 to 8 | < 0.01 | 
4 | CCCCCCCCCc1ccc(-c2ccc(C(=O)NCCC(=O)N3CCC[C@H]3C(=O)N(C)[C@@H]3C(=O)N[C@@H](C)C(=O)N[C@H](C(=O)O)Cc4ccc(O)c(c4)-c4cc3ccc4O)cc2)cc1 [EXAMPLE 18, (8S,11S,14S)-3,18-dihydroxy-11-methyl-14-(methyl{[(2)-1-(3-{[(4′-nonylbiphenyl-4-yl)carbonyl]amino}propanoyl)pyrrolidin-2-yl]carbonyl}amino)-10,13-dioxo-9,12-diazatricyclo[13.3.1.1^2,6]icosa-1(19),2(20),3,5,15,17-hexaene-8-carboxylic acid] | H (H: SIC 0.062-1) | 1 to 8 | < 0.01 | 
5 | CCCCCCc1ccc(-c2ccc(C(=O)NCCC(=O)N[C@@H](CCCCN)C(=O)N(C)[C@@H]3C(=O)N[C@@H](C)C(=O)N[C@H](C(=O)O)Cc4ccc(O)c(c4)-c4cc3ccc4O)cc2)cc1 [EXAMPLE 31] | G (G: SIC <0.0625) |  | < 0.01 | < 1
6 | CCCCCCCCCc1ccc(-c2ncc(C(=O)NCCC(=O)N[C@@H](CCCCN(C)C)C(=O)N(C)[C@@H]3C(=O)N[C@@H](C)C(=O)N[C@H](C(=O)O)Cc4ccc(O)c(c4)-c4cc3ccc4O)cn2)cc1 [EXAMPLE 34] | G (G: SIC <0.0625) |  | < 0.01 | < 1
7 | CCCCCCCCCCc1ccc2cc(C(=O)NCCC(=O)N[C@@H](CCCCN)C(=O)N(C)[C@@H]3C(=O)N[C@@H](C)C(=O)N[C@H](C(=O)O)Cc4ccc(O)c(c4)-c4cc3ccc4O)ccc2c1.O=C(O)C(F)(F)F [EXAMPLE 17, (5S)-6-[[(7S,10S,13S)-13-carboxy-3,18-dihydroxy-10-methyl-8,11-dioxo-9,12-diazatricyclo[13.3.1.1^2,6]icosa-1(19),2(20),3,5,15,17-hexaen-7-yl](methyl)amino]-5-({3-[(6-decyl-2-naphthoyl)amino]propanoyl}amino)-6-oxohexan-1-aminium trifluoroacetate] | G (G: SIC <0.0625) | < 1 | < 0.01 | 
8 | CCCCCCCc1ccc(-c2ccc(C(=O)NCCC(=O)N[C@@H](CCCCN)C(=O)N(C)[C@@H]3C(=O)N[C@@H](C)C(=O)N[C@H](C(=O)O)Cc4ccc(O)c(c4)-c4cc3ccc4O)cc2)cc1 [EXAMPLE 29] | G (G: SIC <0.0625) |  | < 0.01 | < 1
9 | CCCCCCCCCc1ccc(-c2ccc(C(=O)NCCC(=O)N[C@@H](CCCCN)C(=O)N(C)[C@@H]3C(=O)N[C@@H](C)C(=O)N[C@H](C(=O)O)Cc4ccc(O)c(c4)-c4cc3ccc4O)c3ccccc23)cc1 [EXAMPLE 52] | G (G: SIC <0.0625) |  | < 0.01 | 1 to 8
10 | CCCCCCCCCc1ccc(-c2ccc(C(=O)NCCC(=O)N3C[C@H](N)C[C@H]3C(=O)N(C)[C@@H]3C(=O)N[C@@H](C)C(=O)N[C@H](C(=O)O)Cc4ccc(O)c(c4)-c4cc3ccc4O)cc2)cc1 [EXAMPLE 40] | G (G: SIC <0.0625) |  | < 0.01 | < 1
11 | C[C@@H]1NC(=O)[C@@H](N(C)C(=O)C(CCCCN)NC(=O)CCNC(=O)c2ccc(-c3ccc(-c4ccccc4)cc3)cc2)c2ccc(O)c(c2)-c2cc(ccc2O)C[C@@H](C(=O)O)NC1=O.O=C(O)C(F)(F)F (stereo partly drawn) [EXAMPLE 7, 6-[[(7S,10S,13S)-13-carboxy-3,18-dihydroxy-10-methyl-8,11-dioxo-9,12-diazatricyclo[13.3.1.1^2,6]icosa-1(19),2(20),3,5,15,17-hexaen-7-yl](methyl)amino]-6-oxo-5-({3-[(1,1′:4′,1″-terphenyl-4-ylcarbonyl)amino]propanoyl}amino)hexan-1-aminium trifluoroacetate] | H (H: SIC 0.062-1) | < 1 | 0.01 to 0.05 | 
12 | CCCCCCCCCc1ccc(-c2cnc(C(=O)NCCC(=O)N[C@@H](CCCCN)C(=O)N(C)[C@@H]3C(=O)N[C@@H](C)C(=O)N[C@H](C(=O)O)Cc4ccc(O)c(c4)-c4cc3ccc4O)nc2)cc1 [EXAMPLE 63] | G (G: SIC <0.0625) |  | 0.01 to 0.05 | < 1
13 | CCCc1ccc(-c2ccc(C(=O)NCCC(=O)N[C@@H](CCCNC(=N)N)C(=O)N(C)[C@@H]3C(=O)N[C@@H](C)C(=O)N[C@H](C(=O)O)Cc4ccc(O)c(c4)-c4cc3ccc4O)cc2)cc1.O=C(O)C(F)(F)F [EXAMPLE 8, ({(4S)-5-[[(7S,10S,13S)-13-carboxy-3,18-dihydroxy-10-methyl-8,11-dioxo-9,12-diazatricyclo[13.3.1.1^2,6]icosa-1(19),2(20),3,5,15,17-hexaen-7-yl](methyl)amino]-5-oxo-4-[(3-{[(4′-propylbiphenyl-4-yl)carbonyl]amino}propanoyl)amino]pentyl}amino)(imino)methanaminium trifluoroacetate] | H (H: SIC 0.062-1) | 1 to 8 | 0.01 to 0.05 | 
14 | CC(C)CCCCCCc1ccc(-c2ccc(C(=O)NCCC(=O)N[C@@H](CCCCN)C(=O)N(C)[C@@H]3C(=O)N[C@@H](C)C(=O)N[C@H](C(=O)O)Cc4ccc(O)c(c4)-c4cc3ccc4O)cc2)cc1 [EXAMPLE 37] | G (G: SIC <0.0625) |  | < 0.01 | < 1
15 | C[C@@H]1NC(=O)[C@@H](N(C)C(=O)[C@H](CCCCN)NC(=O)CCNC(=O)c2ccc(-c3ccc(C4C5CC6CC(C5)CC4C6)cc3)cc2)c2ccc(O)c(c2)-c2cc(ccc2O)C[C@@H](C(=O)O)NC1=O (stereo partly drawn) [EXAMPLE 21] | G (G: SIC <0.0625) |  | < 0.01 | < 1
16 | CCCCCCCCCc1ccc(-c2ccc(C(=O)NCCC(=O)N[C@@H](CCCCN)C(=O)N(C)[C@@H]3C(=O)N[C@@H](C)C(=O)N[C@H](C(=O)O)Cc4ccc(O)c(c4)-c4cc3ccc4O)c(F)c2)cc1 [EXAMPLE 66] | G (G: SIC <0.0625) |  | 0.01 to 0.05 | < 1
17 | CCCCCCCCCCc1ccc2cc(C(=O)NCCC(=O)N[C@@H](CCCC(=O)O)C(=O)N(C)[C@@H]3C(=O)N[C@@H](C)C(=O)N[C@H](C(=O)O)Cc4ccc(O)c(c4)-c4cc3ccc4O)ccc2c1 [EXAMPLE 60] | G (G: SIC <0.0625) | 1 to 8 | 0.01 to 0.05 | 
18 | CCCc1ccc(-c2ccc(C(=O)NCCC(=O)NC(CCCCN)C(=O)N(C)[C@@H]3C(=O)N[C@@H](C)C(=O)N[C@H](C(N)=O)Cc4ccc(O)c(c4)-c4cc3ccc4O)cc2)cc1.O=C(O)C(F)(F)F (stereo partly drawn) [EXAMPLE 6, trifluoroacetate] |  |  | 0.01 to 0.05 | 
19 | CCCc1ccc(-c2ccc(C(=O)NCCC(=O)NC(CCCCN)C(=O)N(C)[C@@H]3C(=O)N[C@@H](C)C(=O)N[C@H](C(N)=O)Cc4ccc(O)c(c4)-c4cc3ccc4O)cc2)cc1.O=C(O)C(F)(F)F (stereo partly drawn) [EXAMPLE 6] | H (H: SIC 0.062-1) |  |  | < 1
